Data: patent US20250154525A1, “PLANT VIRUS MOVEMENT PROTEINS AND METHODS OF USING SAME” (Molecular Transfer, Inc., priority 2016, published 2025)

Experiments:
[1] = test system: C2C12 Cells; experiment: GFP plasmid transfection with DOTMA/DOPE plus surface ligand peptide, fluorescent plate reader (Example 1); format: cell-based, mouse; settings: DOTMA/DOPE + peptide linked to R12 or K16; EF1Alpha eGFP plasmid; 42 hours
Outline: (§1)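 DOTMA/DOPE (1:1 molar) plus peptide bearing a poly-Arg or poly-Lys tag was complexed 10 min with EF1alpha eGFP plasmid in OptiMEM, then added to 70%-confluent cells (0.01 mL fibroblasts; 0.02 mL C2C12, Jurkat). After 42 h at 37 °C, GFP was read by plate reader and compared with DOTMA without ligand.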

[2] = test system: Human Fibroblast Cells; experiment: as above; format: cell-based; settings: DOTMA/DOPE + peptide linked to R12 or K16; EF1Alpha eGFP plasmid; 42 hours
Outline: as §1

[3] = test system: Jurkat Cells; experiment: as above; format: cell-based; settings: DOTMA/DOPE + peptide linked to R12 or K16; EF1Alpha eGFP plasmid; 42 hours
Outline: as §1

[4] = test system: NL-1 iPS Cells; experiment: as above; format: cell-based; settings: DOTMA/DOPE + peptide linked to R12 or K16; EF1Alpha eGFP plasmid; 42 hours
[5] = test system: HuVec Cells; experiment: as above; format: cell-based; settings: DOTMA/DOPE + peptide linked to R12 or K16; EF1Alpha eGFP plasmid; 42 hours
Outline: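 HuVEC cells in 96 well plates at 70% confluence were transfected with EF1Alpha eGFP plasmid using a 1:1 molar DOTMA/DOPE lipid mixed with a surface ligand peptide carrying a covalently attached nucleic acid binding moiety. Complexes formed for 10 minutes, 0.01 mL went to each well, cells were incubated 42 hours at 37° C., and fluorescence was read on a plate reader.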

[6] = test system: HeLa Cells; experiment: as above; format: cell-based; settings: DOTMA/DOPE + peptide linked to R12 or K16; EF1Alpha eGFP plasmid; 42 hours
[7] = test system: HeLa Cells; experiment: GFP plasmid transfection with DOTMA/DOPE plus plant virus movement protein derived peptides (Example 2); format: cell-based; settings: 1-6 μL of transfection reagents
Method: (§2) Cells were plated to so that on the day of transfection the cells were 70% confluent in 96 well tissue culture plates. A DOMTA/DOPE Lipid solution (1:1 molar ratio) at 2 mg/mL in water were mixed with an equal volume of plant virus movement protein derived peptides that had the nucleic acid binding moiety RRRRRRRRRRRR (SEQ ID NO:109) or KKKKKKKKKKKKKKKK (SEQ ID NO: 102) covalently linked to the N-terminus, or C-terminus of each peptide during peptide synthesis. Peptides were at 2 mg/mL in water. The DOTMA/DOPE and the plant virus movement peptide solution the was diluted 1 to 1 (v/v) in water. DOMTA/DOPE/PEPTIDE solutions were added to 0.1 mL of a plasmid DNA solution (EF1Alpha eGFP plasmid) at 10 μg/mL in OptiMEM.
(§3) All solutions were at room temperature. A volume of 0.2 mL of a 10 μg/mL solution of DNA was aliquoted into each well of a non-tissue cultured treated plate. 1-6 μL of transfection reagents were added to DNA solutions respectively. The transfection reagent and DNA solution was mixed by pipetting up and down twice. Transfection complexes were formed for 10 minutes. After 10 minutes, 0.01 or 0.02 mL of the transfection complex was added to cells. HuVEC, HeLa, human adult keratinocytes, human primary adult fibroblast, and A549 cells all respectively received 0.01 mL of the transfection complex. Human skeletal muscle cells, mouse C2C12 cells, and Jurkat, cells received 0.02 mL of the transfection complex. Cells were incubated for 42 hours at 37° C. at 5% CO2. Plates were read on a fluorescent plate reader. Cells were also examined visually under a microscope to assess the extent of transfection (in terms of the percent of cells transfected) with a fluorescent microscope. Other modes of analysis, for example quantification with B-galactosidase or luciferase reports plasmids can also be used.

[8] = test system: Human Primary Fibroblast Cells; experiment: as above; format: cell-based; settings: 42 hours
Method: as §2, §3

[9] = test system: HuVec Cells; experiment: as above; format: cell-based; settings: 42 hours
Method: as §2, §3

[10] = test system: HeLa Cells; experiment: GFP transfection with DOTMA/SEQ ID NO: 72 (fusogenic peptide)/peptide compared with Lipofectamine 2000; format: cell-based
Outline: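 DOTMA/DOPE (1:1 molar) lipid mixed with polyarginine- or polylysine-tagged cell-surface-ligand peptide, complexed 10 min with EF1alpha eGFP plasmid at 10 μg/mL in OptiMEM, fusogenic peptide at 0.1 mg/mL final; HeLa cells ~70% confluent given 0.01 mL complex. GFP read by fluorescence plate reader and microscopy (% cells transfected) after 42 h at 37° C; Lipofectamine 2000 as comparator.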

[11] = test system: some examined cell types; experiment: Summary of Example 1: transfection expression and % cells transfected over the no peptide control; format: cell-based; settings: on some examined cell types
Outline: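 Cells at 70% confluence received DNA complexes of EF1Alpha eGFP plasmid with DOTMA/DOPE (1:1) plus oligo-Arg- or oligo-Lys-tagged peptide ligands, formed 10 min at room temperature. After 42 h at 37 °C, 5% CO2, GFP read by plate reader and % transfected cells judged microscopically, relative to lipid without peptide.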

[12] = value column 1 of 6, head not given, 1 µL transfection reagent
[13] = value column 3 of 6, head not given, 3 µL transfection reagent
[14] = value column 4 of 6, head not given, 4 µL transfection reagent
[15] = 0.1 μL of DOTMA/SEQ ID NO: 72/Peptide in well of a 96 well plate
[16] = 0.2 μL of DOTMA/SEQ ID NO: 72/Peptide in well of a 96 well plate
[17] = 0.3 μL of DOTMA/SEQ ID NO: 72/Peptide in well of a 96 well plate
[18] = 0.4 μL of DOTMA/SEQ ID NO: 72/Peptide in well of a 96 well plate

Compound	Relative Fluorescence of Transfection of C2C12 Cells (RF) [1]	Relative Fluorescence of Transfection of Human Fibroblast Cells (RF) [2]	Relative Fluorescence of Transfection of Jurkat Cells (RF) [3]	Relative Fluorescence of Transfection of NL-1 iPS Cells (RF) [4]	Relative Fluorescence of Transfection of HuVec Cells (RF) [5]	Relative Fluorescence of Transfection of HeLa Cells (RF) [6]	Relative Fluorescence of Transfection of Hela Cells ([7]; 2 µL transfection reagent)	Relative Fluorescence of Transfection of Hela Cells ([7]; 5 µL transfection reagent)	Relative Fluorescence of Transfection of Hela Cells [7, 12]	Relative Fluorescence of Transfection of Hela Cells [7, 13]	Relative Fluorescence of Transfection of Hela Cells [7, 14]	Relative Fluorescence of Transfection of Human Primary Fibroblast Cells ([8]; Transfection Agent 1 μl)	Relative Fluorescence of Transfection of Human Primary Fibroblast Cells ([8]; Transfection Agent 1.5 μl)	Relative Fluorescence of Transfection of Human Primary Fibroblast Cells ([8]; Transfection Agent 2 μl)	Relative Fluorescence of Transfection of Human Primary Fibroblast Cells ([8]; Transfection Agent 3 μl)	Relative Fluorescence of Transfection of Human Primary Fibroblast Cells ([8]; Transfection Agent 4 μl)	Relative Fluorescence of Transfection of Human Primary Fibroblast Cells ([8]; Transfection Agent 6 μl)	Relative Fluorescence of Transfection of HuVEC Cells ([9]; Transfection Agent 1 μl)	Relative Fluorescence of Transfection of HuVEC Cells ([9]; Transfection Agent 1.5 μl)	Relative Fluorescence of Transfection of HuVEC Cells ([9]; Transfection Agent 2 μl)	also measured
CCCCCCCC/C=C\CCCCCCCCOCC(C[N+](C)(C)C)OCCCCCCCC/C=C\CCCCCCCC.[Cl-] (stereo not drawn) [DOTMA, N-[1-(2,3-dioleyloxy)propyl]-N,N,N-trimethylammonium chloride, reference compound]	1289	3397	9084	8965	12230	7551	4782	9694	4424	5377	6992										
109 (RRRRRRRRRRRR) [compound 109]							5578	8007	4157	6606	8520	28368 Rf	30373 Rf	29858 Rf	29895 Rf	30941 Rf	29386 Rf	24603 Rf	25735 Rf	25421 Rf	Relative Fluorescence of Transfection of HuVEC Cells ([9]; Transfection Agent 3 μl): 26641 Rf; Relative Fluorescence of Transfection of HuVEC Cells ([9]; Transfection Agent 4 μl): 26529 Rf; Relative Fluorescence of Transfection of HuVEC Cells ([9]; Transfection Agent 6 μl): 25907 Rf
542 (KKKKKKKKKKKKKKKKGKWERKPIRCAS) [compound 542]							32901	35631	9010	47293	42152	30818 Rf	43609 Rf	46966 Rf	36343 Rf	33706 Rf	31787 Rf	24827 Rf	33896 Rf	42546 Rf	Relative Fluorescence of Transfection of HuVEC Cells ([9]; Transfection Agent 3 μl): 43231 Rf; Relative Fluorescence of Transfection of HuVEC Cells ([9]; Transfection Agent 4 μl): 35294 Rf; Relative Fluorescence of Transfection of HuVEC Cells ([9]; Transfection Agent 6 μl): 29326 Rf
547 (SYVKTVPNRTRTYIKGGGGGRRRRRRRRRRRR) [compound 547]							9491	8829	5899	10275	11241	29141 Rf	33704 Rf	35175 Rf	35563 Rf	33951 Rf	30539 Rf	24554 Rf	26172 Rf	28255 Rf	Relative Fluorescence of Transfection of HuVEC Cells ([9]; Transfection Agent 3 μl): 32494 Rf; Relative Fluorescence of Transfection of HuVEC Cells ([9]; Transfection Agent 4 μl): 31180 Rf; Relative Fluorescence of Transfection of HuVEC Cells ([9]; Transfection Agent 6 μl): 26775 Rf
357 (SETTVKYIFRLHE) [compound 357]	4506	7167	2256	15624	6009	22679															Relative Fluorescence DOTMA/SEQ ID NO: 72/Peptide, HeLa Cells (RF) [10, 15]: 7718; Relative Fluorescence DOTMA/SEQ ID NO: 72/Peptide, HeLa Cells (RF) [10, 16]: 11798; Relative Fluorescence DOTMA/SEQ ID NO: 72/Peptide, HeLa Cells (RF) [10, 17]: 9229; Relative Fluorescence DOTMA/SEQ ID NO: 72/Peptide, HeLa Cells (RF) [10, 18]: 9107; transfection expression and % cells transfected over the no peptide control [11]: increased transfection expression and the % cells transfected
369 (TAIPSCPEGTVPLYS) [compound 369]	3322	7590	11085	13124	6536	14444															Relative Fluorescence DOTMA/SEQ ID NO: 72/Peptide, HeLa Cells (RF) [10, 15]: 8737; Relative Fluorescence DOTMA/SEQ ID NO: 72/Peptide, HeLa Cells (RF) [10, 16]: 16706; Relative Fluorescence DOTMA/SEQ ID NO: 72/Peptide, HeLa Cells (RF) [10, 17]: 14880; Relative Fluorescence DOTMA/SEQ ID NO: 72/Peptide, HeLa Cells (RF) [10, 18]: 12645; transfection expression and % cells transfected over the no peptide control [11]: increased transfection expression and the % cells transfected
